Data published in patent publication US8822463B2, “Methylcyclohexane derivatives and uses thereof” (Sk Biopharmaceuticals Co., Ltd., priority 2010, dated 2014).
Where two headings read alike, the source gives them in different places.

Key:
[1] = tested on: LPS-induced NO production in mouse monocytes (RAW); assay: LPS-induced NO production inhibition test, mouse monocytes (RAW); format: cell-based; conditions: Monocyte, RAW cells, 20 ng/ml LPS, 24 hours, Griess reagent
Procedure: (§1) Mouse monocytes (RAW) and mouse microglia (BV2) cells were cultured on a 96-well transparent plate (Nunc) in such a way that each of the wells contained 60,000 and 35,000 cells respectively. After 18 hours, when stabilized, the cells were treated with lipopolysaccharide (Sigma, USA, Cat No. L2630) in a morbid state derived from 20 ng/ml of Escherichia coli O111:B4 and 4 different concentrations (50 uM, 12.5 uM, 3.1 uM, and 0.8 uM) of the compounds synthesized according to Examples 1 to 55. Then, the cells were cultured for 24 hours, and a concentration of increased NO was measured. The NO concentration was determined by measuring absorption at a wavelength of 540 nm after a Griess reagent including 0.1% N-(1-naphthyl)ethylenediamine dihydrochloride, 1% sulfanilamide, and 2.5% phosphoric acid were added thereto.

[2] = tested on: LPS-induced NO production in mouse microglia (BV2); assay: LPS-induced NO production inhibition test, mouse microglia (BV2); format: cell-based; conditions: BV-2, BV2 cells, 20 ng/ml LPS, 24 hours, Griess reagent
Procedure: as §1

[3] = tested on: neuropathic pain (mechanical allodynia) in rats with caudal nerve damage; assay: Pain relief test using animal model (caudal nerve damage neuropathic pain, mechanical allodynia); format: in vivo; conditions: ip, rat, von Frey, reference concentration 30 mg/kg, read-out: Pain test results (% MPE, 50% tail withdrawal threshold)
Procedure: Male rats (Sprague-Dawley, 150-200 g, 6-week old, Orient Bio Co., Ltd) were purchased and acclimated in an animal chamber for one week. The animal chamber was alternately turned on and off at a time interval of 12 hours, at a temperature of 22 to 25° C., and in a relative humidity of 40-60%, and water and feed was supplied ad libitum to the rats.
The rats were placed in a round acryl container (5.5 15, 6.5 18 cm, which varied according to the size of body) and only the tails thereof were taken out of the container and placed on a plate. To confirm a pain behavior corresponding to a mechanical stimulus, an up-down method (J. Neurosci. Methods 53:55-63) was performed using a von Frey filament so as to measure “50% tail withdrawal threshold.
During all the steps before surgery, anesthesia was maintained with a mixed gas including 2-3% enflurane and 95% oxygen.
The compounds were each prepared as a solution form by using 5% DMSO, 5% Cremophore, and 90% distilled water on a volumetric basis. Each of the solutions was intraperitoneally administered in a volume of 3 ml per kg of a rat. The concentration of the compounds was controlled according to a compound and the concentration of reference was 30 mg/kg. […]
Anti-allodynic effects of the compounds were described as mean±SEM, and were compared each other by referring to “% MPE (the percentage of maximum possible effect),” and analyzed using one-way ANOVA and Bonferroni's t-test. […] [% MPE=(the threshold with respect to time after the drug treatment−the threshold at 0 hr)/(15−the threshold at 0 hr)×100]

[4] = at 1 hour after intraperitoneal administration
[5] = at 4 hours after intraperitoneal administration

IC50 [1] | IC50 [2] | SMILES | inhibition in vivo [3, 4] | inhibition in vivo [3, 5]
> 50 µM | 5.8 µM | O=C(NCc1cccnc1)OC1CCC(COC(=O)N2CCCC2)CC1 (centres unmarked) [Example 8, pyrrolidine-1-carboxylic acid 4-(pyridin-3-ylmethylcarbamoyloxy)-cyclohexylmethyl ester] | 11% | 
19.9 µM | 19.4 µM | Cc1cccc(CNC(=O)OC2CCC(COC(=O)N3CCCC3)CC2)n1 (centres unmarked) [Example 15, pyrrolidine-1-carboxylic acid 4-(6-methyl-pyridin-2-ylmethylcarbamoyloxy)-cyclohexylmethyl ester] | 29.2% | 
27.9 µM | 10.8 µM | O=C(NCc1ccnc(Cl)c1)OC1CCC(COC(=O)N2CCCC2)CC1 (centres unmarked) [Example 16, pyrrolidine-1-carboxylic acid 4-(2-chloro-pyridin-4-ylmethylcarbamoyloxy)-cyclohexylmethyl ester] |  | 16.4%
29.5 µM | 12.5 µM | O=C(NCc1ccc(Cl)nc1)OC1CCC(COC(=O)N2CCCC2)CC1 (centres unmarked) [Example 17, pyrrolidine-1-carboxylic acid 4-(6-chloro-pyridin-3-ylmethylcarbamoyloxy)-cyclohexylmethyl ester] | 5.8% | 
5.7 µM | 18.3 µM | O=C(NCc1cccnc1Cl)OC1CCC(COC(=O)N2CCCC2)CC1 (centres unmarked) [Example 18, pyrrolidine-1-carboxylic acid 4-(2-chloro-pyridin-3-ylmethylcarbamoyloxy)-cyclohexylmethyl ester] | 22.5% | 
50 µM | 37.9 µM | O=C(Nc1ccncc1)OC1CCC(COC(=O)N2CCCC2)CC1 (centres unmarked) [Example 20, pyrrolidine-1-carboxylic acid 4-(pyridin-4-ylcarbamoyloxy)-cyclohexylmethyl ester] |  | 22%
15.9 µM | 44.8 µM | O=C(Nc1ccccn1)OC1CCC(COC(=O)N2CCCC2)CC1 (centres unmarked) [Example 21, pyrrolidine-1-carboxylic acid 4-(pyridin-2-ylcarbamoyloxy)-cyclohexylmethyl ester] | 35.2% | 
28.6 µM | > 50 µM | O=C(Nc1ccnc(Cl)c1)OC1CCC(COC(=O)N2CCCC2)CC1 (centres unmarked) [Example 23, pyrrolidine-1-carboxylic acid 4-(2-chloro-pyridin-4-ylcarbamoyloxy)-cyclohexylmethyl ester] |  | 18.7%
> 50 µM | > 50 µM | O=C(NC1CCC(COC(=O)N2CCCC2)CC1)OCc1ccccn1 (centres unmarked) [Example 40, pyrrolidine-1-carboxylic acid 4-(pyridin-2-ylmethoxycarbonylamino)-cyclohexylmethyl ester] |  | 11%
50 µM | > 50 µM | O=C(NC1CCC(COC(=O)N2CCCC2)CC1)OCc1ccncc1 (centres unmarked) [Example 42, pyrrolidine-1-carboxylic acid 4-(pyridin-4-ylmethoxycarbonylamino)-cyclohexylmethyl ester] |  | 57%
48.7 µM | > 50 µM | O=C(NCc1ccncc1)OC1CCC(CNC(=O)N2CCCC2)CC1 (centres unmarked) [Example 54, pyridin-4-ylmethyl-carbamic acid 4-{[(pyrrolidine-1-carbonyl)-amino]-methyl}-cyclohexyl ester] | 10.5% | 
25.6 µM | > 50 µM | O=C(NCc1ccncc1)OC1CCC(CNC(=O)C2CCCC2)CC1 (centres unmarked) [Example 55, pyridin-4-ylmethyl-carbamic acid 4-[(cyclopentanecarbonyl-amino)-methyl]-cyclohexyl ester] |  | 
